According to patent US10695322B2 (priority 2016, dated 2020):
Read-outs that look alike come from different tables or passages of the source.

Legend:
[1] = biological target: LdtMab1, wild-type (MAB_3165c, orthologue of LdtMt1) (Mycobacteroides abscessus, UniProt B1MDC1); experiment: biochemical; format: binding, Mycobacterium abscessus; conditions: Figure 6; ITC, wt, protein 150 μM, ligand 2 mM, pH 8.0, 24° C.
[2] = test system: M. tuberculosis, M. abscessus, A. baumannii, K. pneumoniae, E. cloacae, P. aeruginosa, E. faecalis and S. aureus; experiment: Minimum inhibitory concentration (MIC90), broth dilution, panel of pathogens; format: cell-based; conditions: panel of tested pathogens
[3] = biological target: T1, LdtMt1 (Mycobacterium tuberculosis, UniProt O53638); experiment: biochemical; format: binding, M. tuberculosis
T1 sequence (O53638 32-251 limits assumed): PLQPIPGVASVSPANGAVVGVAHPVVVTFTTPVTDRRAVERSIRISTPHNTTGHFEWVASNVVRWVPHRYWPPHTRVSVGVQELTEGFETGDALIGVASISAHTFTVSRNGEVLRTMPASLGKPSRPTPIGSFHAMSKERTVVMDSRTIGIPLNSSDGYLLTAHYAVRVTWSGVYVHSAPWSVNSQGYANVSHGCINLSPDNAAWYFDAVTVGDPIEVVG

[4] = biological target: T2, LdtMt2 (Mycobacterium tuberculosis, UniProt I6Y9J2); format: binding, M. tuberculosis; conditions: for Kd: 24° C., tris pH 8.0
T2 sequence (I6Y9J2 56-408 limits assumed): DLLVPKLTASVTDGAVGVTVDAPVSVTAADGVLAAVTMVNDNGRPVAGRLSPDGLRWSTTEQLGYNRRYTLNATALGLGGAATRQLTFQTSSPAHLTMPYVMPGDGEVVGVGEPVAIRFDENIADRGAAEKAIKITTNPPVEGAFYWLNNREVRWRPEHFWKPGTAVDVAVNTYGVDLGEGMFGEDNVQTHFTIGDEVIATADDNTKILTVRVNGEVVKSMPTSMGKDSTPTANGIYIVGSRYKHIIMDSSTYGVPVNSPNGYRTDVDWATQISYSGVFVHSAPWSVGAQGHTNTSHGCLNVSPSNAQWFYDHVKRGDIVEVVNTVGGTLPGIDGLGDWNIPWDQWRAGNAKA

[5] = biological target: T2, LdtMt2; experiment: biochemical; set-up: species or system M. tuberculosis; conditions: for kinact/KI: read-out: kinact/Kapp ratio
[6] = biological target: T2, LdtMt2; format: binding, M. tuberculosis
[7] = biological target: LdtMab2 (Mycobacteroides abscessus, UniProt B1MMQ4); experiment: Isothermal titration calorimetry, binding to LdtMab2; set-up: species or system M. abscessus; conditions: ITC, 24° C., tris pH 8.0
Chain of LdtMab2 (Mycobacteroides abscessus, UniProt B1MMQ4) (B1MMQ4 62-406 limits assumed): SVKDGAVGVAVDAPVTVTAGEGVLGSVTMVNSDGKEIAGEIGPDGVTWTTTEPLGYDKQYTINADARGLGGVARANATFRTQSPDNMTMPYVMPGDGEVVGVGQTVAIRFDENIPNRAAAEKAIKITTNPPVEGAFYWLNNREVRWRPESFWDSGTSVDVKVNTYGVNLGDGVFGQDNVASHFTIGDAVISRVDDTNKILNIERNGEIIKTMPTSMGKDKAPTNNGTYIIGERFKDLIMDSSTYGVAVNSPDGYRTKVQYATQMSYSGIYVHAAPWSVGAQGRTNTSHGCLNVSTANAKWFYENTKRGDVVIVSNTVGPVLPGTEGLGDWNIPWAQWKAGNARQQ

[8] = biological target: T3, LdtMab1 (Mycobacteroides abscessus, UniProt B1MDC1); experiment: UPLC-MS analysis of protein-drug adducts, LdtMab1; format: binding, M. abscessus
T3 sequence (B1MDC1 entry or part of it): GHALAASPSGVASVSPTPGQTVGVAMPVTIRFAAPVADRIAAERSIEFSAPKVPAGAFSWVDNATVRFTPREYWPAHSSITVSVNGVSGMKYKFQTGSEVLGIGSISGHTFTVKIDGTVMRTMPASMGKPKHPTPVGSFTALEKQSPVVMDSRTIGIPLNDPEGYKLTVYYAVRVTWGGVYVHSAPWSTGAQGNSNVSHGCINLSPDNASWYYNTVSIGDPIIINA

[9] = biological target: T4, LdtMt2, wild-type (L,D-transpeptidase of M. tuberculosis; fragment without N-terminal transmembrane domain, N-terminal His6, TEV-cleavable) (Mycobacterium tuberculosis, UniProt I6Y9J2); experiment: biochemical; format: binding
T4 construct: Fragments excluding the putative transmembrane domain were cloned, expressed and purified; His6 (TEV-cleavable) (N); made in house; host or cells: E. coli BL21(DE3)
T4 sequence (I6Y9J2 56-408 limits assumed): as the sequence (I6Y9J2 56-408 limits assumed) above

[10] = test system: LdtMab2; experiment: UPLC-MS analysis of protein-drug adducts, LdtMab2; format: binding, M. abscessus; conditions: for reaction and covalent adduct formation: evolved carbapenem alone
[11] = test system: LdtKp; experiment: UPLC-MS analysis of protein-drug adducts, LdtKp; format: binding, K. pneumoniae
[12] = test system: LdtCl; experiment: UPLC-MS analysis of protein-drug adducts, LdtCl; format: binding, E. cloacae; conditions: for reaction and covalent adduct formation: evolved carbapenem alone
Description: Ultra-performance liquid chromatography-high resolution mass spectrometry (UPLC-MS) with a Waters Acquity H-Class system utilizing a Waters Acquity BEH-300 UPLC column packed with a C4 stationary phase (2.1×50 mm, 1.7 μm) in conjunction with HRMS analysis by a Waters Xero-G2 quadropole-TOF electrospray mass spectrometer was used to detect and analyze protein-drug adducts. Each enzyme (2 μM) in 25 mM Tris buffer, pH 8, was incubated in the absence or presence of drugs (50 μM) at room temperature for 5 hours. Trifluoroacetic acid (0.1% final) was used to quench the reactions, samples were filtered through a 0.22 um filter and analyzed using UPLC-MS as follows: Mobile phase: 0-1 min 90% water+10% ACN+0.1% formic acid, 1-7.5 min gradient up to 20% water+80% ACN+0.1% formic acid, 7.5-8.4 min 20% water+80% ACN+0.1% formic acid, 8.4-8.5 min gradient up to 90% water+10% ACN+0.1% formic acid, 8.5-10 min 90% water+10% ACN+0.1% formic acid. Flow rate=0.3 mL min^−1. T=60° C.

[13] = test system: LdtPa; experiment: UPLC-MS analysis of protein-drug adducts, LdtPa; format: binding, P. aeruginosa
[14] = test system: M. tuberculosis; conditions: mouse, in vivo; cited from earlier work
[15] = test system: M. tuberculosis; conditions: oral gavage; recent report; cited from earlier work
[16] = biological target: T3, LdtMab1; experiment: Isothermal titration calorimetry, binding to LdtMab1; conditions: ITC, 24° C., tris pH 8.0
[17] = biological target: T1, LdtMt1; format: binding, M. tuberculosis
[18] = test system: M. tuberculosis; format: in vivo, BALB/c mice; conditions: for gross pathology of lungs (tuberculous lesions): mouse, in vivo
[19] = biological target: T5, human DHP-1 (Homo sapiens, UniProt P16444); conditions: cited from earlier work
T5 sequence (P16444 17-385): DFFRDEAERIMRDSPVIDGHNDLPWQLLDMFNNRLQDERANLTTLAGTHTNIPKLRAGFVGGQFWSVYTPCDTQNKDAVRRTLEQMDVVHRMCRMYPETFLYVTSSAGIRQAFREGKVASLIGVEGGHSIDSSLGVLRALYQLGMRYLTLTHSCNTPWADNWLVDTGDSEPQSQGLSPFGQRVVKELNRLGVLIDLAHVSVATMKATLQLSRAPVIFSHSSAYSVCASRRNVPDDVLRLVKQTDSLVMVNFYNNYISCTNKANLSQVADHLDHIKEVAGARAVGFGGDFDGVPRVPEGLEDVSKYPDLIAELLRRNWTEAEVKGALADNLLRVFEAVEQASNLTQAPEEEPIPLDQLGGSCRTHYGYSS

[20] = 10 μM LdtMt2, MES pH 6.5, 10° C.
[21] = 10 μM LdtMt2, MES pH 6.5, 10° C., read-out: kinact (converted)
[22] = competition: equimolar mixture of doripenem, biapenem, faropenem and tebipenem, within one minute
[23] = equimolar mixture of amoxicillin, cephalothin, aztreonam and faropenem

Chain of LdtMab1, wild-type (MAB_3165c, orthologue of LdtMt1) (B1MDC1 21-248): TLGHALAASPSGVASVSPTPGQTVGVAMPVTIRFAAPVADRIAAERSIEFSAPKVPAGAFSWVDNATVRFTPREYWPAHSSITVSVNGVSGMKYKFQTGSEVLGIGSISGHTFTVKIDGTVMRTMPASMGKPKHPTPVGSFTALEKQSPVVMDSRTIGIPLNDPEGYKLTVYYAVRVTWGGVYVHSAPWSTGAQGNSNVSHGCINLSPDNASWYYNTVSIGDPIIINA

CC1(C)S[C@@H]2[C@H](NC(=O)[C@H](N)c3ccc(O)cc3)C(=O)N2[C@H]1C(=O)O [Amoxicillin]
Kd [1]: 1290 µM

C[C@@H](O)[C@H]1C(=O)N2C(C(=O)O)=C(SCc3ccccc3)[C@H](C)[C@H]12 [T222]
minimum inhibitory concentration (MIC90) / growth inhibition [2]: inhibit growth of all tested pathogens except P. aeruginosa

CC(=O)OCC1=C(C(=O)O)N2C(=O)[C@@H](NC(=O)Cc3cccs3)[C@H]2SC1 [cephalothin]
heat of association [3]: could not be detected
heat of association [4]: could not be detected

C[C@@H](O)[C@H]1C(=O)N2C(C(=O)O)=C(S[C@@H]3CN[C@H](CNS(N)(=O)=O)C3)[C@H](C)[C@H]12 [doripenem]
Kapp ([5]; pH 6.5): 32.6 ± 11.3 µM
kinact ([5]; pH 6.5): 0.122 s⁻¹
kinact/KI [5]: 3670 M⁻¹ s⁻¹
mass of stable adduct with wild-type LdtMt2 [6]: 123 Da

CC1(C)S[C@@H]2[C@H](NC(=O)[C@H](N)c3ccc(O)cc3)C(=O)N2[C@H]1C(=O)O [amoxicillin]
heat of association ([3]; ITC): could not be detected
heat of association ([4]; ITC): could not be detected

C[C@@H](O)[C@H]1C(=O)N2C(C(=O)O)=C(SCC(F)(F)F)[C@H](C)[C@H]12 [T221]
minimum inhibitory concentration (MIC90) / growth inhibition [2]: inhibit growth of all tested pathogens except P. aeruginosa

C[C@@H](O)[C@H]1C(=O)N2C(C(=O)O)=C(Sc3c[nH]c4ccccc34)[C@H](C)[C@H]12 [T224]
minimum inhibitory concentration (MIC90) / growth inhibition [2]: inhibit growth of all tested pathogens except P. aeruginosa

CCCOC(=O)CSC1=C(C(=O)O)N2C(=O)[C@H]([C@@H](C)O)[C@H]2[C@H]1C [T206]
Kd ([4]; ITC): low to sub μM range
Kd [7]: low to sub μM range
reaction and covalent adduct formation [8]: reacted and formed covalent adducts
Kd [9]: 2.8 µM
reaction and covalent adduct formation [10]: did not react
reaction and covalent adduct formation [11]: reacted and formed covalent adducts
reaction and covalent adduct formation [12]: reacted and formed covalent adducts
reaction and covalent adduct formation [13]: did not react

C[C@@H](O)[C@H]1C(=O)N2C(C(=O)O)=C(SCCc3ccccc3)[C@H](C)[C@H]12 [T223]
minimum inhibitory concentration (MIC90) / growth inhibition [2]: inhibit growth of all tested pathogens except P. aeruginosa

C[C@@H](O)[C@H]1C(=O)N2C(C(=O)O)=C(S[C@@H]3CN[C@H](C(=O)N(C)C)C3)[C@H](C)[C@H]12 [meropenem]
activity in macrophages and mice infected with M. tuberculosis [14]: limited activity

CSC1=C(C(=O)O)N2C(=O)[C@H]([C@@H](C)O)[C@H]2[C@H]1C [T210]
Kd [7]: low to sub μM range
Kapp [5, 20]: 20.8 ± 3.3 µM
reaction and covalent adduct formation [8]: reacted and formed covalent adducts
reaction and covalent adduct formation [10]: did not react
reaction and covalent adduct formation [11]: reacted and formed covalent adducts
reaction and covalent adduct formation [12]: reacted and formed covalent adducts
reaction and covalent adduct formation [13]: reacted and formed covalent adducts

CC(=O)OCC1=C(C(=O)O)N2C(=O)[C@@H](NC(=O)Cc3cccs3)[C@H]2SC1 [Cephalothin]
Kd [9]: 200 µM
Kd [1]: 30.3 µM

C[C@@H](O)[C@H]1C(=O)N2C(C(=O)O)=C(SCC(=O)OC3CCCCC3)[C@H](C)[C@H]12 [T208]
Kd ([4]; ITC): low to sub μM range
Kd [7]: low to sub μM range
Kapp [5, 20]: 4.8 ± 2.9 µM
kinact [5, 21]: 0.045 s⁻¹
reaction and covalent adduct formation [8]: reacted and formed covalent adducts
Kd [9]: 5.65 µM
reaction and covalent adduct formation [10]: did not react
reaction and covalent adduct formation [11]: reacted and formed covalent adducts
reaction and covalent adduct formation [12]: reacted and formed covalent adducts
reaction and covalent adduct formation [13]: reacted and formed covalent adducts

Cc1oc(=O)oc1COC(=O)C1=C([C@H]2CCCO2)S[C@@H]2[C@@H]([C@@H](C)O)C(=O)N12 [faropenem medoxomil]
M. tuberculosis burden in the lungs [15]: ineffective

COC(=O)CSC1=C(C(=O)[O-])N2C(=O)[C@H]([C@@H](C)O)[C@H]2[C@H]1C.[Na+] [T205, sodium (4R,5S,6S)-6-((R)-1-hydroxyethyl)-3-((2-methoxy-2-oxoethyl)thio)-4-methyl-7-oxo-1-azabicyclo[3.2.0]hept-2-ene-2 carboxylate]
reaction and covalent adduct formation [8]: reacted and formed covalent adducts
Kd [9]: 155 µM
reaction and covalent adduct formation [10]: did not react
reaction and covalent adduct formation [11]: reacted and formed covalent adducts
reaction and covalent adduct formation [12]: reacted and formed covalent adducts
reaction and covalent adduct formation [13]: reacted and formed covalent adducts

C[C@@H](O)[C@H]1C(=O)N2C(C(=O)O)=C([C@H]3CCCO3)S[C@H]12 [faropenem]
Kd ([3]; ITC, 24° C., tris pH 8.0, single binding modality): 3.98 µM
Kd [16]: 0.16 µM
Kd ([7]; read-out: Kd): 6.25 µM
Kapp [5, 20]: 49.2 ± 11.9 µM
adducts detected in competition [17]: faropenem adducts gave the only masses we could detect
proteins reacted exclusively with the drug [17]: 100%
mass of adduct with LdtMt1 ([17]; covalently attached to C226): 86 Da
adducts detected in competition [6]: faropenem adducts gave the only masses we could detect
proteins reacted exclusively with the drug [6]: 100%
mass of stable adduct with wild-type LdtMt2 ([6]; UPLC-MS): +86 Da
adducts detected in competition [8]: faropenem adducts gave the only masses we could detect
proteins reacted exclusively with the drug [8]: 100%
proteins reacted exclusively with the drug [10, 22]: 100%
adducts detected in competition [10, 23]: faropenem adducts gave the only masses we could detect
adducts detected in competition [11]: faropenem adducts gave the only masses we could detect
proteins reacted exclusively with the drug [11]: 100%
proteins reacted exclusively with the drug [12, 22]: 100%
adducts detected in competition [12, 23]: faropenem adducts gave the only masses we could detect
gross pathology of lungs (tuberculous lesions) [18]: developed tuberculous lesions in the lungs but their pathology and the bacterial burden were lower compared to untreated mice
M. tuberculosis burden in the lungs ([18]; three weeks of treatment): lower compared to untreated mice
survival / overall health of infected mice ([18]; used alone): prolonged the life of mice

C[C@@H](O)[C@H]1C(=O)N2C(C(=O)[O-])=C(SC3Cn4cnc[n+]4C3)[C@H](C)[C@H]12 (stereo partly shown) [biapenem]
Kapp [5, 20]: 15.3 ± 2.5 µM
kinact [5, 21]: 0.06 s⁻¹
kinact/KI [5]: 3830 M⁻¹ s⁻¹
mass of stable adduct with wild-type LdtMt2 ([6]; UPLC-MS): +138 Da
gross pathology of lungs (tuberculous lesions) [18]: no tuberculous lesions
M. tuberculosis burden in the lungs ([18]; three weeks of treatment): no less effective than rifampicin
bactericidal activity in vivo ([18]; three weeks of treatment): lacked bactericidal activity
metabolism by human DHP-1 [19]: not readily metabolized

C[C@H]1[C@H](NC(=O)/C(=N\OC(C)(C)C(=O)O)c2csc(N)n2)C(=O)N1S(=O)(=O)O [aztreonam]
heat of association ([3]; ITC): could not be detected
heat of association ([4]; ITC): could not be detected
